In patent publication US20250129012A1, “ANTI-INFLAMMATORY AND ANALGESIC COMPOUNDS AND USE THEREOF” (JIANGSU ATOM BIOSCIENCE AND PHARMACEUTICAL CO., LTD., priority 2021, published 2025):
Where two headings read alike, the source gives them in different places. Marks after values point to notes of the source that are not given here.

Experiments:
[1] = system: gouty arthritis in rats (urate crystals, left ankle joint); assay: Pharmacodynamics experiment A on gouty arthritis in rats: paw volume; format: in vivo, SD rats; conditions: for Paw volume: Mean ± SEM
Method: (§1) Compounds 2, 17, 26 and 27 were prepared by grinding with 0.5% CMC-Na into a suspension of the corresponding concentration (0.06 mg/mL) for gavage before administration, and the volume of administration was 10 mL/kg. […] Before use, 0.5% CMC-Na was used for grinding and prepared into a suspension of the corresponding concentration (0.06 mg/mL) for gavage, and the volume of drug administered was 10 mL/kg.
(§2) Each group of subjects was prepared into a suspension of the corresponding concentration, and the administration volume was 10 mL/kg.
(§3) The crystalline arthritis model was prepared by intra-articular injection of urate crystals (40 mg/mL, in the left ankle joint of each rat). Different doses of the test drug were given separately by gavage administration. The day of administration was defined as day 1 of the experiment, and the drug was administered once a day for 10 consecutive days (pre-administration of the drug for 7 days prior to modeling, modeling on day 8, and continuation of the drug for 3 days). The experiment ended on day 10.
Paw volume was measured before administration, before urate injection, and 2, 4, 8, 10, 24, and 48 h after injection.
(§4) The data obtained from the experiment were statistically analyzed using IBM SPSS Statistics 22.0. All measurements were expressed as Mean±S.E.M s. The data were analyzed using SPSS 22.0 statistical software and variance chi-square test was performed on the parameters.

[2] = system: gouty arthritis in rats (urate crystals, left ankle joint); assay: Pharmacodynamics experiment A on gouty arthritis in rats: gait score; format: in vivo, SD rats; design: Gait Score: scale not given here; conditions: 0.6 mg/kg gavage; for Gait Score: Mean ± SEM
Method: as §1, §2, §3
The degree of lameness of the modeled joints was observed and scored at the same time point.
as §4

[3] = system: gouty arthritis in rats (urate crystals, left ankle joint); assay: Pharmacodynamics experiment A on gouty arthritis in rats: pain score; format: in vivo, SD rats; design: Pain score: scale not given here; conditions: 0.6 mg/kg gavage; for Pain score: Mean ± SEM
Method: as §1, §2, §3
The pain level was scored using the flexion and extension joint pain test scoring method at the same time point.
as §4

[4] = system: TNF-α; assay: Inflammatory factor experiment A: TNF-α in gouty arthritis rats; format: in vivo, SD rats
Method: Compounds 14, 17 and 26 were prepared by grinding with 0.5% CMC-Na before administration and into a suspension for gavage at the corresponding concentration (0.06 mg/mL), with a dosage volume of 10 mL/kg. Colchicine, purchased from Sun Chemical Technology (Shanghai) Co., Ltd. with batch no. 49ETRRAS, and was prepared by grinding with 0.5% CMC-Na before administration and into a suspension for gavage at the corresponding concentration (0.06 mg/mL), with a dosage volume of 10 mL/kg.
The compounds in each group were prepared into a suspension of the corresponding concentration, and the dosage volume was 10 mL/kg.
as §3, with “(40 mg/mL” for “(40 mg/mL,”, “test compounds” for “test drug”, “the compounds were” for “the drug was”, “10. […]” for “10.”

[5] = system: IL-6; assay: Inflammatory factor experiment B: IL-6 in knee synovial tissue (ELISA); format: in vivo, SD rats
[6] = In vivo pharmacokinetics in SD rats; conditions: for AUC(0-inf): read-out: AUCINF; for MRT inf: read-out: MRTINF
Procedure, shortened: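 SD rats received compound intravenously (0.5 mg/mL solution) or by oral gavage (1 mg/mL, fasted overnight), both formulated in DMSO/Solutol HS15/saline. Plasma compound concentrations were measured by LC/MS/MS. Non-compartmental parameters were then calculated.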

[7] = death 35 h after ingestion; cited from earlier work
[8] = time points after modeling, P<0.05 or P<0.01
[9] = Sprague-Dawley, rat, in vivo, po, Gavage - 10 mg/kg
[10] = Sprague-Dawley, rat, in vivo, Intravenous injection - 1 mg/kg

COc1cc2c(c(OC)c1OC)-c1ccc(OC)c(=O)cc1[C@@H](NC(C)=O)CC2 [colchicine, reference compound]
Paw volume versus model group, in words ([1]; 0.6 mg/kg gavage, time points after modeling): significantly smaller than those in the model group at 2 h, 4 h, 8 h, 10 h, and 48 h after modeling
Paw volume ([1]; 2 h after modeling, 0.6 mg/kg gavage): 2.44 ± 0.02*** cm^3
Paw volume ([1]; 4 h after modeling, 0.6 mg/kg gavage): 2.45 ± 0.03** cm^3
Paw volume ([1]; 8 h after modeling, 0.6 mg/kg gavage): 2.44 ± 0.04*** cm^3
Paw volume ([1]; 10 h after modeling, 0.6 mg/kg gavage): 2.46 ± 0.04** cm^3
Paw volume ([1]; 24 h after modeling, 0.6 mg/kg gavage): 2.46 ± 0.05 cm^3
Paw volume ([1]; 48 h after modeling, 0.6 mg/kg gavage): 2.24 ± 0.03*** cm^3
Paw volume ([1]; before modeling, 0.6 mg/kg gavage once a day): 2.18 ± 0.03 cm^3
Gait versus model group, in words [2, 8]: improved the gait of rats at 2 h, 24 h, and 48 h after modeling
Gait Score ([2]; 2 h after modeling): 1.10 ± 0.10
Gait Score ([2]; 4 h after modeling): 1.10 ± 0.10
Gait Score ([2]; 8 h after modeling): 1.30 ± 0.15
Gait Score ([2]; 10 h after modeling): 1.30 ± 0.21
Gait Score ([2]; 24 h after modeling): 1.00 ± 0.00
Gait Score ([2]; 48 h after modeling): 1.00 ± 0.00
Gait Score ([2]; before modeling): 0.00 ± 0.00
Pain versus model group, in words [3, 8]: improved the pain at 2 h, 8 h, 24 h, and 48 h
Pain score ([3]; 2 h after modeling): 3.30 ± 0.60
Pain score ([3]; 4 h after modeling): 2.90 ± 0.71
Pain score ([3]; 8 h after modeling): 3.20 ± 0.61
Pain score ([3]; 10 h after modeling): 2.60 ± 0.70
Pain score ([3]; 24 h after modeling): 1.40 ± 0.58
Pain score ([3]; 48 h after modeling): 0.80 ± 0.44
Pain score ([3]; before modeling): 0.00 ± 0.00
TNF-α level after modeling, in words ([4]; 0.6 mg/kg): can reduce the TNF-α level
Decreased TNF-α percentage % ([4]; synovial tissue of knee joints, dose 0.6 mg/kg gavage, day 10): 93.73%
inhibition in vivo at 0.6 mg/kg ([5]; Rattus norvegicus, po, synovial tissue of knee joints, 48 h after modeling, dose 0.6 mg/kg, read-out: IL-6 percentage decrease %): 83.5%
inhibition in vivo at 1.2 mg/kg ([5]; Rattus norvegicus, po, synovial tissue of knee joints, 48 h after modeling, dose 1.2 mg/kg (high dose group), read-out: IL-6 percentage decrease %): 96.3%
IL-6 level after modeling, in words ([5]; compounds 0.6 mg/kg, colchicine 0.6 and 1.2 mg/kg): could reduce the IL-6 level
F ([6]; Gavage - 10 mg/kg, calculated by AUCINF): 8.73%
AUC(0-inf) [6, 9]: 735 ng·h/mL
Cmax ([6]; Sprague-Dawley, rat, in vivo, po, Gavage - 10 mg/kg, read-out: Cmax): 175 ng/mL
MRT inf [6, 9]: 25.7 h
Tmax ([6]; Sprague-Dawley, rat, in vivo, po, Gavage - 10 mg/kg, read-out: Tmax): 0.417 h
AUC(0-inf) [6, 10]: 567 ng·h/mL
clearance ([6]; Sprague-Dawley, rat, in vivo, Intravenous injection - 1 mg/kg, read-out: CL (converted)): 31.8 mL/min/kg
MRT inf [6, 10]: 11 h
Vd ([6]; Sprague-Dawley, rat, in vivo, Intravenous injection - 1 mg/kg, read-out: VSS): 17.6 L/kg
Dose with reported death cases [7]: 0.4 mg/kg
